Assay [1] concerns the target GCN2 kinase (Homo sapiens, UniProt Q9P2K8). Put plainly: GCN2 enzyme inhibition assay (Transcreener ADP2 fluorescence polarization). The settings on record: compounds of Formula II; 280 μM ATP, 4 nM GCN2 kinase. The format is biochemical. The procedure, abridged:
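Kinase activity is followed as ADP formation, measured by fluorescence polarization, using 4 nM enzyme with 280 μM ATP and 200 μM (RS)7 peptide at pH 7.5 and 25 °C for 1 h. Values come from a non-linear tight-binding fit.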
In general terms: Fluorescence polarisation rises when a labelled molecule tumbles more slowly, as on binding a larger partner.

In assay [2] the target is intracellular GCN2 (phosphorylation of the GCN2 substrate eIF2α) (Homo sapiens, UniProt Q9P2K8). Nature of the assay: GCN2 cellular inhibition assay (AlphaScreen SureFire P-eIF2α Ser51, borrelidin-treated U2OS cells). The format is cell-based. The settings on record: compounds of Formula II; biomarker assay, phosphorylated eIF2α Ser51 in borrelidin-treated U2OS cells. Summed up: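 U2OS, overnight attach; cpd 4-fold serial dil. from 40 μM final; borrelidin 10 μM, 1 h 37 °C/5% CO2; lyse; AlphaScreen P-eIF2α Ser51 (acceptor 2 h, donor overnight, RT, dark); % inhib. vs borrelidin-only.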
Sequence of intracellular GCN2 (phosphorylation of the GCN2 substrate eIF2α) (Q9P2K8 whole entry): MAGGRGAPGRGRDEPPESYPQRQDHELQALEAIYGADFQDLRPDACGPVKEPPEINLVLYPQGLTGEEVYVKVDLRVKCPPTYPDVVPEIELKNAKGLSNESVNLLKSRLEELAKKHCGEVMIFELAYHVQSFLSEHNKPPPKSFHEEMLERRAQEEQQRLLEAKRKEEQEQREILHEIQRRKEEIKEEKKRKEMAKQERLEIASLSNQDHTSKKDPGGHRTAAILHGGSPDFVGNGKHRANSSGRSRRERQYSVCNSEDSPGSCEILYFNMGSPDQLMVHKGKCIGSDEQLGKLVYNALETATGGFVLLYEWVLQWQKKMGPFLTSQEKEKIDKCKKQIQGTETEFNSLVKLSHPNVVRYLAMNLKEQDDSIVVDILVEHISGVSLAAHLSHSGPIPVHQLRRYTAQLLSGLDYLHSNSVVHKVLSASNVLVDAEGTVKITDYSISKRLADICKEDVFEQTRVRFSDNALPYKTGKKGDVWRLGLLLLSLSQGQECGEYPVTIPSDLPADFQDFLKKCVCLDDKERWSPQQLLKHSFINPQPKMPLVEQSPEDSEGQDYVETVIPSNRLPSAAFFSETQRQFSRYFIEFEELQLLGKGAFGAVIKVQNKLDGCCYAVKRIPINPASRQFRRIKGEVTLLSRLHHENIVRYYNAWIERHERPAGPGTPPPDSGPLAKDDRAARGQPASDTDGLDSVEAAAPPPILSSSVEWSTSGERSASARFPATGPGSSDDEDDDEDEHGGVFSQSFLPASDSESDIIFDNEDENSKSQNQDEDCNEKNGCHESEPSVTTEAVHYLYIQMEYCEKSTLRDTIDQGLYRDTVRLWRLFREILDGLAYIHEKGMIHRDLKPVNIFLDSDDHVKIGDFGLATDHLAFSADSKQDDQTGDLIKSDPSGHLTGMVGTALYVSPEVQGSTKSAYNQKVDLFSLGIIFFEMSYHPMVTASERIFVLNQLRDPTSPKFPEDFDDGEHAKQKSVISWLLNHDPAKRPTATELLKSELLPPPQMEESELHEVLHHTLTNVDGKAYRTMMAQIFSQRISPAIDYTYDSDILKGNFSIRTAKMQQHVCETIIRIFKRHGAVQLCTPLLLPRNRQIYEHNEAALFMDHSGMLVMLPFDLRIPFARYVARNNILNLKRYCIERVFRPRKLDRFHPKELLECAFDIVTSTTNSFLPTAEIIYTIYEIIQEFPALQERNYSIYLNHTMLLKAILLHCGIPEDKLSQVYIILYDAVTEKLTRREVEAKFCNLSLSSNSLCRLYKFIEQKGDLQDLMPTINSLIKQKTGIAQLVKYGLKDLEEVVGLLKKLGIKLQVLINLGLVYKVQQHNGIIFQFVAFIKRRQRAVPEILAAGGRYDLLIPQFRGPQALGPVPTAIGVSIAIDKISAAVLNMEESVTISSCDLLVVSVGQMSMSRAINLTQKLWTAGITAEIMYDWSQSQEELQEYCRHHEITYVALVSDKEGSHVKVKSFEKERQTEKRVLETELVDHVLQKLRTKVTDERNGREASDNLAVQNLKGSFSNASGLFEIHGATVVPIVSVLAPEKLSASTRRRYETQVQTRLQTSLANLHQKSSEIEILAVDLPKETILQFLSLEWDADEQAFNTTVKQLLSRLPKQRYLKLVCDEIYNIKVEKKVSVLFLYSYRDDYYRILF

The structures appear in SMILES notation. pIC50, pKi: −log10 of the molar value.

The values that follow come from patent US10988477B2 (Merck Patent GmbH, priority 2018, dated 2021).

A word on the pKi: it is −log10 of the Ki, conventionally taken in molar units. Read a low pKi as a large Ki. As a reminder, the pIC50 is the IC50 on a negative log10 scale, so that one unit is a factor of ten.

Sequence of GCN2 kinase (Q9P2K8 whole entry): as above

Compound `CC(=O)N1CCN(c2cc(-c3cnc4ccc(C(F)(F)F)nn34)ccn2)CC1` [II-223, 1-(4-(4-(6-(Trifluoromethyl)imidazo[1,2-b]pyridazin-3-yl)pyridin-2-yl)piperazin-1-yl)ethanone] gave a pKi in assay [1] of 6.00 to 8.00. The negative-log IC50 (pIC50) in assay [2] was less than 5.30.

In the case of `CS(=O)(=O)NC[C@@H]1CN(c2cc(-c3cnc4ccc(C(F)(F)F)nn34)ccn2)CCO1` [II-224, (S)—N-((4-(4-(6-(Trifluoromethyl)imidazo[1,2-b]pyridazin-3-yl)pyridin-2-yl)morpholin-2-yl)methyl)methanesulfonamide], the negative-log Ki (pKi) in assay [1] is 6.00 to 8.00. In assay [2], this compound showed a pIC50 of 5.30 to 6.30.

In assay [1], `FC(F)(F)c1ccc2ncc(-c3ccnc(N4CCOC(c5cn[nH]c5)C4)c3)n2n1` (stereo not drawn) [II-225, 2-(1H-Pyrazol-4-yl)-4-(4-(6-(trifluoromethyl)imidazo[1,2-b]pyridazin-3-yl)pyridin-2-yl)morpholine] had a negative logarithm of the Ki (pKi) of more than 8.00. The same compound gave a negative logarithm of the IC50 (pIC50) in assay [2] of more than 6.30.

Consider `O=C1OC2(CC2)[C@@H]2CN(c3cc(-c4cnc5ccc(C(F)(F)F)nn45)ccn3)CCN12` [II-226, (S)-7′-(4-(6-(Trifluoromethyl)imidazo[1,2-b]pyridazin-3-yl)pyridin-2-yl)tetrahydrospiro[cyclopropane-1,1′-oxazolo[3,4-a]pyrazin]-3′(5′H)-one], for which the pKi in assay [1] is 6.00 to 8.00. The compound also gave a pIC50 in assay [2] of 5.30 to 6.30.

As to `CS(=O)(=O)CC1CCCN(c2cc(-c3cnc4ccc(C(F)(F)F)nn34)ccn2)C1` (stereo not drawn) [II-227, 3-(2-(3-((Methylsulfonyl)methyl)piperidin-1-yl)pyridin-4-yl)-6-(trifluoromethyl)imidazo[1,2-b]pyridazine], the pKi in assay [1] is 6.00 to 8.00. In assay [2], the pIC50 was less than 5.30.

For `CS(=O)(=O)C1CCCN(c2cc(-c3cnc4ccc(C(F)(F)F)nn34)ccn2)C1` (stereo not drawn) [II-228, 3-(2-(3-(Methylsulfonyl)piperidin-1-yl)pyridin-4-yl)-6-(trifluoromethyl)imidazo[1,2-b]pyridazine], in assay [1], the pKi was 6.00 to 8.00. In assay [2], the pIC50 was less than 5.30.

`CS(=O)(=O)NC1CCCN(c2cc(-c3cnc4ccc(C(F)(F)F)nn34)ccn2)C1` (stereo not drawn) [II-231, N-(1-(4-(6-(Trifluoromethyl)imidazo[1,2-b]pyridazin-3-yl)pyridin-2-yl)piperidin-3-yl)methanesulfonamide]: the pKi in assay [1] is 6.00 to 8.00. The negative logarithm of the IC50 (pIC50) in assay [2] is 5.30 to 6.30.

In turn, `CS(=O)(=O)NCC1COCCN(c2cc(-c3cnc4ccc(C(F)(F)F)nn34)ccn2)C1` (stereo not drawn) [II-232, N-((4-(4-(6-(Trifluoromethyl)imidazo[1,2-b]pyridazin-3-yl)pyridin-2-yl)-1,4-oxazepan-6-yl)methyl)methanesulfonamide] gave a pKi in assay [1] of 6.00 to 8.00. In addition, the negative-log IC50 (pIC50) in assay [2] is 5.30 to 6.30.

`C[C@H]1CO[C@@H](CNS(C)(=O)=O)CN1c1cc(-c2cnc3ccc(C(F)F)nn23)ncn1` [II-234, N-(((2R,5S)-4-(6-(6-(difluoromethyl)imidazo[1,2-b]pyridazin-3-yl)pyrimidin-4-yl)-5-methylmorpholin-2-yl)methyl)methanesulfonamide] gave a negative-log Ki (pKi) in assay [1] of 6.00 to 8.00. In assay [2], the negative logarithm of the IC50 (pIC50) is 5.30 to 6.30.

With `CN(CC1CC(O)CN(c2cc(-c3cnc4ccc(C(F)F)nn34)ncn2)C1)S(C)(=O)=O` (stereo not drawn) [II-235, N-((1-(6-(6-(Difluoromethyl)imidazo[1,2-b]pyridazin-3-yl)pyrimidin-4-yl)-5-hydroxypiperidin-3-yl)methyl)-N-methylmethanesulfonamide], in assay [1], the pKi is 6.00 to 8.00. Moreover, the pIC50 in assay [2] is 5.30 to 6.30.

In assay [1], `C[C@H]1CN(c2cc(-c3cnc4ccc(C(F)F)nn34)ncn2)C[C@@H]1CNS(C)(=O)=O` [II-237, N-(((3R,4R)-1-(6-(6-(Difluoromethyl)imidazo[1,2-b]pyridazin-3-yl)pyrimidin-4-yl)-4-methylpyrrolidin-3-yl)methyl)methanesulfonamide] showed a negative-log Ki (pKi) of more than 8.00. Also, the negative logarithm of the IC50 (pIC50) in assay [2] is 5.30 to 6.30.

In turn, `CC1CN(c2cc(-c3cnc4ccc(C(F)F)nn34)ncn2)CC1CNS(C)(=O)=O` (stereo not drawn) [II-238, N-((1-(6-(6-(Difluoromethyl)imidazo[1,2-b]pyridazin-3-yl)pyrimidin-4-yl)-4-methylpyrrolidin-3-yl)methyl)methanesulfonamide] had a negative logarithm of the Ki (pKi) in assay [1] of 6.00 to 8.00. This compound also had a negative-log IC50 (pIC50) in assay [2] of 5.30 to 6.30.

Consider `CC1(O)CCN(c2cc(-c3cnc4ccc(C(F)F)nn34)ncn2)CC1CNS(C)(=O)=O` (stereo not drawn) [II-239, N-((1-(6-(6-(Difluoromethyl)imidazo[1,2-b]pyridazin-3-yl)pyrimidin-4-yl)-4-hydroxy-4-methylpiperidin-3-yl)methyl)methanesulfonamide], for which, in assay [1], the negative logarithm of the Ki (pKi) is more than 8.00. For the same compound, the negative-log IC50 (pIC50) in assay [2] was 5.30 to 6.30.

As to `CC1(O)CCN(c2cc(-c3cnc4ccc(C(F)F)nn34)ncn2)CC1CNS(C)(=O)=O` (stereo not drawn) [II-240, N-((1-(6-(6-(Difluoromethyl)imidazo[1,2-b]pyridazin-3-yl)pyrimidin-4-yl)-4-hydroxy-4-methylpiperidin-3-yl)methyl)methanesulfonamide], the pKi in assay [1] is more than 8.00. Moreover, the pIC50 in assay [2] is more than 6.30.

The compound `CC1C(CNS(C)(=O)=O)CCN1c1cc(-c2cnc3ccc(C(F)F)nn23)ncn1` (stereo not drawn) [II-243, N-((1-(6-(6-(Difluoromethyl)imidazo[1,2-b]pyridazin-3-yl)pyrimidin-4-yl)-2-methylpyrrolidin-3-yl)methyl)methanesulfonamide] gave a pKi in assay [1] of 6.00 to 8.00. Also, the negative logarithm of the IC50 (pIC50) in assay [2] was 5.30 to 6.30.

In turn, `CC1C(CNS(C)(=O)=O)CCN1c1cc(-c2cnc3ccc(C(F)F)nn23)ncn1` (stereo not drawn) [II-244, N-((1-(6-(6-(Difluoromethyl)imidazo[1,2-b]pyridazin-3-yl)pyrimidin-4-yl)-2-methylpyrrolidin-3-yl)methyl)methanesulfonamide] gave a negative-log Ki (pKi) in assay [1] of 6.00 to 8.00. Also, the negative-log IC50 (pIC50) in assay [2] is less than 5.30.

`CC1CCC(CNS(C)(=O)=O)CN1c1cc(-c2cnc3ccc(C(F)F)nn23)ncn1` (stereo not drawn) [II-245, N-((1-(6-(6-(Difluoromethyl)imidazo[1,2-b]pyridazin-3-yl)pyrimidin-4-yl)-6-methylpiperidin-3-yl)methyl)methanesulfonamide] had a pKi in assay [1] of 6.00 to 8.00. In assay [2], the negative-log IC50 (pIC50) is less than 5.30.

On to `CC1CCC(CNS(C)(=O)=O)CN1c1cc(-c2cnc3ccc(C(F)F)nn23)ncn1` (stereo not drawn) [II-246, N-((1-(6-(6-(Difluoromethyl)imidazo[1,2-b]pyridazin-3-yl)pyrimidin-4-yl)-6-methylpiperidin-3-yl)methyl)methanesulfonamide], for which the pKi in assay [1] is 6.00 to 8.00. This compound also had a pIC50 in assay [2] of less than 5.30.

The compound `C[C@@H]1CC[C@H](CNS(C)(=O)=O)CN1c1cc(-c2cnc3ccc(C(F)F)nn23)ncn1` [II-247, N-(((3S,6R)-1-(6-(6-(Difluoromethyl)imidazo[1,2-b]pyridazin-3-yl)pyrimidin-4-yl)-6-methylpiperidin-3-yl)methyl)methanesulfonamide] gave a negative-log Ki (pKi) in assay [1] of more than 8.00. This compound also showed a negative-log IC50 (pIC50) in assay [2] of more than 6.30.

For `CC1CCC(CNS(C)(=O)=O)CN1c1cc(-c2cnc3ccc(C(F)F)nn23)ncn1` (stereo not drawn) [II-248, N-((1-(6-(6-(Difluoromethyl)imidazo[1,2-b]pyridazin-3-yl)pyrimidin-4-yl)-6-methylpiperidin-3-yl)methyl)methanesulfonamide], in assay [1], the pKi is 6.00 to 8.00. In assay [2], this compound had a pIC50 of 5.30 to 6.30.

In the case of `CS(=O)(=O)NC[C@@H]1CN(c2cc(-c3cnc4ccc(C5CC5)nn34)ncn2)CCO1` [II-249, (S)—N-((4-(6-(6-Cyclopropylimidazo[1,2-b]pyridazin-3-yl)pyrimidin-4-yl)morpholin-2-yl)methyl)methanesulfonamide], in assay [1], the negative-log Ki (pKi) is 6.00 to 8.00. The compound also showed a negative-log IC50 (pIC50) in assay [2] of 5.30 to 6.30.

Consider `CS(=O)(=O)N1CCC(c2cc(-c3cnc4ccc(C(F)F)nn34)ncn2)C1` (stereo not drawn) [II-250, 6-(Difluoromethyl)-3-(6-(1-(methylsulfonyl)pyrrolidin-3-yl)pyrimidin-4-yl)imidazo[1,2-b]pyridazine], for which the pKi in assay [1] was 6.00 to 8.00. The compound further had a negative-log IC50 (pIC50) in assay [2] of less than 5.30.

Compound `FC(F)c1ccc2ncc(-c3cc(N4CCOCC4)ncn3)n2n1` [II-251, 4-(6-(6-(Difluoromethyl)imidazo[1,2-b]pyridazin-3-yl)pyrimidin-4-yl)morpholine] showed a negative logarithm of the Ki (pKi) in assay [1] of 6.00 to 8.00. In assay [2], this compound showed a negative logarithm of the IC50 (pIC50) of less than 5.30.

In assay [1], `FC(F)c1ccc2ncc(-c3cc(N4CC5(COC5)C4)ncn3)n2n1` [II-252, 6-(6-(6-(Difluoromethyl)imidazo[1,2-b]pyridazin-3-yl)pyrimidin-4-yl)-2-oxa-6-azaspiro[3.3]heptane] showed a pKi of 6.00 to 8.00. In addition, the negative-log IC50 (pIC50) in assay [2] was less than 5.30.

`CC(=O)N1CCC(c2cc(-c3cnc4ccc(C(F)F)nn34)ncn2)C1` (stereo not drawn) [II-253, 1-(3-(6-(6-(Difluoromethyl)imidazo[1,2-b]pyridazin-3-yl)pyrimidin-4-yl)pyrrolidin-1-yl)ethan-1-one] had a negative-log Ki (pKi) in assay [1] of 6.00 to 8.00. Also, the pIC50 in assay [2] is less than 5.30.

Consider `O=C(NCCO)N1CCC(c2cc(-c3cnc4ccc(C(F)F)nn34)ncn2)C1` (stereo not drawn) [II-254, 3-(6-(6-(Difluoromethyl)imidazo[1,2-b]pyridazin-3-yl)pyrimidin-4-yl)-N-(2-hydroxyethyl)pyrrolidine-1-carboxamide], for which the pKi in assay [1] is 6.00 to 8.00. Further, in assay [2], the pIC50 was less than 5.30.

With `CS(=O)(=O)CCN1CCC(c2cc(-c3cnc4ccc(C(F)F)nn34)ncn2)C1` (stereo not drawn) [II-255, 6-(Difluoromethyl)-3-(6-(1-(2-(methylsulfonyl)ethyl)pyrrolidin-3-yl)pyrimidin-4-yl)imidazo[1,2-b]pyridazine], the negative logarithm of the Ki (pKi) in assay [1] is 6.00 to 8.00. This compound had a pIC50 in assay [2] of less than 5.30.
